Test results reported in patent publication US20070270455A1, “INHIBITION OF NF-kB” (priority 2005, published 2007).

What was measured:
[1] = tested on: MCF7ConALacZ cells; assay: p53-responsive reporter assay in MCF7 cells; type: cell-based; conditions: compared with doxorubicin
Text: (§1) Bars represent folds of p53 responsive reporter induction over untreated controls. Box represents western blot analysis of p53 expression in total protein lysates of both cells variants in basal and doxorubicin treated conditions (to evaluate basal and DNA-damage induced level of p53). […] Fold induction presented as fold of reporter activation over untreated control. […] Fold induction presented as fold of reporter activation over untreated control.
(§2) For cotransfection set-up, 2×10^5 cells were plated into 6 well plates and, after overnight incubation, transfected with Lipofectamin Plus reagent (Gibco BRL) with 0.5 μg of reporter plasmids (p21-ConALuc or pNF-κBLuc) in combination with different concentrations of p53, Arf, Ss-IκB, or siHDM2 expressing plasmids. Corresponding empty vectors were added into all transfections up to 2 μg of total DNA amount. […] Luciferase activity and β-galactosidase activity was measured in lysates prepared 48 hours after transfection with Cell Lysis Buffer (Promega) by luciferase assay system (Promega) or β-galactosidase enzyme system (Promega). Luminometric and colorimetric reactions were read on the Wallack 1420 plate reader (Perkin Elmer). […] Luciferase or β-galactosidase activity and protein concentration were measured in aliquots of cell lysates using standard kits (Promega, Luciferase and β-galactosidase assay systems, Biorad Protein Assay Kit).

[2] = tested on: HT1080ConALuc cells; assay: p53-responsive luciferase reporter assay in HT1080 cells; type: cell-based, human
Text: as §1
For cotransfection set-up, 2×10^5 cells were plated into 6 well plates and, after overnight incubation, transfected with Lipofectamin Plus reagent (Gibco BRL) with 0.5 μg of reporter plasmids (p21-ConALuc or pNF-κBLuc) in combination with different concentrations of p53, Arf, Ss-IκB, or siHDM2 expressing plasmids. Corresponding empty vectors were added into all transfections up to 2 μg of total DNA amount. Normalization of transfection efficiency was done by adding 0.2 μg of pCMV-LacZ plasmid. Luciferase activity and β-galactosidase activity was measured in lysates prepared 48 hours after transfection with Cell Lysis Buffer (Promega) by luciferase assay system (Promega) or β-galactosidase enzyme system (Promega). Luminometric and colorimetric reactions were read on the Wallack 1420 plate reader (Perkin Elmer). Integrated reporter set-up. 2×10^4 of cells with integrated reporter were plated in 96 well plates. After overnights incubation chemical compounds or media from lentivirus producing cells were added. At different time points cell lysates were prepared using Reporter Lysis Buffer (Promega). Luciferase or β-galactosidase activity and protein concentration were measured in aliquots of cell lysates using standard kits (Promega, Luciferase and β-galactosidase assay systems, Biorad Protein Assay Kit).

[3] = tested on: RCC45ConALacZ cells; assay: p53-responsive reporter (ConALacZ) β-galactosidase assay in RCC45 cells; type: cell-based; conditions: compared with doxorubicin
Procedure: 2×10^4 of RCC45ConALacZ cells were plated into wells of 96 well plates in 200 μL of phenol-red free RPMI medium with standard additives. After overnight incubation library of chemical compounds in DMSO solution together with controls was added with the help of plastic bacterial replicators (200+/−100 nL). Final concentration of compounds was around 5 μg/ml. Negative control was DMSO, positive control was doxorubicin solution (0.2, 0.6 and 2 μM). After 24 hours lysis buffer with ONPG was added directly to the medium on ice. After 3 hours of incubation at 37° C., β-galactosidase activity was estimated by reading absorbance values Wallack 1420 plate reader (Perkin Elmer) at λ=430 nm.
For cotransfection set-up, 2×10^5 cells were plated into 6 well plates and, after overnight incubation, transfected with Lipofectamin Plus reagent (Gibco BRL) with 0.5 μg of reporter plasmids (p21-ConALuc or pNF-κBLuc) in combination with different concentrations of p53, Arf, Ss-IκB, or siHDM2 expressing plasmids. […] Luciferase activity and β-galactosidase activity was measured in lysates prepared 48 hours after transfection with Cell Lysis Buffer (Promega) by luciferase assay system (Promega) or β-galactosidase enzyme system (Promega). Luminometric and colorimetric reactions were read on the Wallack 1420 plate reader (Perkin Elmer). […]

[4] = tested on: IκB; assay: Western blot of IκB level and phosphorylation; type: cell-based; conditions: PC-3 cells, 10 μM; MCF7 cells
Procedure: (§3) Western blot analysis of total protein lysates was performed using antibodies against p53 (DO1) and against specific sites of phosphorylation in p53. […] HCT116 cells were treated for 30 minutes with 1 μM PS-341. PS-341 was washed off after 30 minutes and cells were re-incubated in drug free medium prior to analysis at 3 hours or 16 hours post-treatment. […] Proteasome activity was determined by measuring the absorbance of free AMC generated by cleavage of an AMC-fluorogenic peptide. The proteasome activity of untreated cells was set at 100%. […] Cell lysates were isolated at the indicated hours after treatment and used for western blotting. […]
(§4) Cells were lysed in RIPA buffer (25 mM Tris HCl, pH7.2, 125 mM NaCl, 1% NP40, 1% sodium deoxycholate, 1 mM EDTA) containing 1 mM PMSF (Sigma), 10 μg/ml of aprotinin (Sigma) and 10 μg/ml of leupeptin (Sigma). Protein concentrations were determined with BioRad Dc protein assay kit. […] The following antibodies were used: anti-p53—monoclonal mouse DO1 (Santa-Cruz), anti-p21—monoclonal mouse F-5 (Santa-Cruz), anti-mdm2—monoclonal mouse SMP14 (Santa-Cruz). p53 phosphorylation status was analyzed using phospho-p53 sampler kit from Cell signaling according to manufacturer's recommendations, anti-p65—(C20, Santa Cruz), anti-phospho-p65—(ser536, Cell Signaling), anti-IκBa—(C21, Santa Cruz), anti-p50—(NLS, Santa Cruz). […]

[5] = tested on: p53; assay: Western blot of p53 phosphorylation status in RCC45 cells; type: cell-based; conditions: 9AA 5 μM or dox 1 μM, 16 hours
Procedure: as §3, §4

[6] = tested on: p53 null H1299 cells; assay: p53-responsive reporter assay in p53 null cells; type: cell-based
Text: as §1, §2

[7] = tested on: HT1080-sip53 and HT1080-siGFP cells; assay: Cell survival assay in isogenic cell pairs with anti-p53 or control siRNA; type: cell-based, human; conditions: anti-p53 vs control siRNA; maximum difference in HT1080 cells
[8] = tested on: H1299-NF-kBLuc cells; assay: NF-κB-responsive luciferase reporter assay; type: cell-based
[9] = tested on: topoisomerase II; assay: DNA—Topoisomerase II activity assay; type: cell-based; conditions: in vitro; HT1080 cells, 1 h
Procedure: Western blot analysis of total protein lysates was performed using antibodies against p53 (DO1) and against specific sites of phosphorylation in p53. […] HCT116 cells were treated for 30 minutes with 1 μM PS-341. PS-341 was washed off after 30 minutes and cells were re-incubated in drug free medium prior to analysis at 3 hours or 16 hours post-treatment. […] Proteasome activity was determined by measuring the absorbance of free AMC generated by cleavage of an AMC-fluorogenic peptide. The proteasome activity of untreated cells was set at 100%. […] Cell lysates were isolated at the indicated hours after treatment and used for western blotting. Blots were probed with antibodies specific for both phosphorylated and unphosphorylated forms of IκB-α. β-actin specific antibodies were used as a loading control.
HT1080 cells were labeled for 24 hours with 0.02 to 0.04 mCi/mL of [^14C] thymidine, specific activity 53 mCi/mmol (Amersham). […] The induction of topo II-mediated DNA scission was determined by measuring precipitation of the protein DNA complex using a modification of the SDS-KCl technique.

[10] = after treatment with the drug, FIG. 3f

Nc1c2ccccc2nc2ccccc12 [9AA, 9-aminoacridine]
induction of p53 reporter and p53-responsive genes (in words) [1]: weaker than that of doxorubicin
concentration at which p53 was activated ([2]; HT1080ConALuc cells, 24 hours): ≥ 1 µM
time at which p53-dependent transactivation becomes detectable [2, 10]: 12 h
time at which p53-dependent transactivation reaches maximum [2, 10]: around 36 hours
p53 reactivation / reporter induction (in words) [3]: much stronger than doxorubicin
level of IκB [4]: gradual decrease followed by complete disappearance of IκB
p53 phosphorylation status [5]: did not affect
stimulation of p53 reporter activity [6]: no stimulation of reporter activity
toxicity in cells differing in p53 status [7]: less toxic to the cells with reduced p53 expression
TSA-stimulated NF-κB-dependent transcription ([8]; 100 nM TSA): could not be blocked
NF-κB-responsive reporter activity ([8]; basal and TNF-induced (10 ng/ml)): inhibited basal and TNF-induced activity of the reporter
effect on topoisomerase II activity [9]: no effect
